Entries after “also recorded” stand apart in the source; their conditions may differ. Square brackets hold non-standard residues; d marks the D form. Ends that are not written are not given here. Peptide text beside a SMILES is read from it. Abu = CC[C@H](N)C(=O)O
How the values were obtained:
HUVEC [1] = format: cell-based, human; conditions: for Activity in Proliferation: Yes/No summary
Method: Several assays were used to test the peptides discussed in the Examples herein. A colorimetric based proliferation assay using WST-1 (Roche, 11644807001) proliferation reagent was carried out using HUVEC cells. 2000 cells/well were plated in 96-well plates and allowed to adhere overnight. On the following day, the media was exchanged with fully supplemented media containing peptides or equivalent DMSO vehicle for the controls. Three days later the media containing the peptides was replaced with serum-free EBM-2 media containing WST-1 reagent and the plates were incubated for four hours as per the manufacturer's recommendations. Changes in color, due to the formazan dye resulted from the cleavage of the tetrazolium salt WST-1 by the mitochondrial succinate-tetrazolium reductase, were read on a Victor V fluorescence plate reader (Perkin Elmer, MA) by measuring the absorbance at 450 nm Dose response curves of percent live cells (in comparison to untreated cells but incubated in complete media with 0.2% DMSO) were created. Assays were performed in at least two independent replicates and each replicate was performed using three experimental triplicates.

HUVEC [2] = assay: HUVEC migration assay (RT-CIM); format: cell-based, human; conditions: for Migration Inhibition (50 uM): 50 uM peptide; for Activity in Migration: Yes/No summary, active = inhibitory potential greater than 30%; for inhibition of migration: concentration not given; for Migration Inhibition (5 uM): 5 uM peptide
Method: The inhibitory potential of the peptides was measured using a real time migration assay system based on electrical impedance (RT-CIM, ACEA Biosciences, CA). CIM 16 well plates (Roche, 05665817001) are composed of a top and bottom chamber separated by a microporous (8 μm) polycarbonate membrane. The membrane was coated with fibronectin (20 μg/mL), and 45,000 cells/well in serum free media with or without peptides were added to the top compartment. Media with chemoattractant (i.e., fully supplemented EBM-2) was added to the bottom compartment of the chamber and the plate was incubated at 37° C. for 20 hours. The sensors integrated on the bottom side of the membrane monitor and continuously record changes in impedance as the cells move through the membrane. The RT-CIM technology allows for easy quantification of cell migration by monitoring the cell index derived from the measured impedances. Assays were performed in at least two independent replicates and each replicate was performed using two experimental duplicates.

HUVEC [3] = format: cell-based, human; conditions: HUVEC; for Adhesion Inhibition (100 uM): 100 uM peptide; for Activity in Adhesion: Yes/No summary, active = inhibitory potential greater than 30%
Method: Similar to the migration assays, the inhibition activity of the peptide in cellular adhesion was assessed using the RT-CIM technology. In this case, 25,000 cells/well were plated in 16 wells E-plates (Roche, Basel Switzerland) in the presence or absence of the peptide. The adhesion was monitored over time (3 hours) by measuring changes in the electrical impedance, which is a direct measure of the cells adhering on the electrodes. […] Assays were performed in at least two independent replicates and each replicate was performed using two experimental duplicates.

HUVEC [4] = assay: HUVEC tube formation assay on Matrigel; format: cell-based, human; conditions: for Tube formation Inhibition (100 uM): 100 uM peptide; for Activity in Tube formation: Yes/No summary; for inhibition of tube formation (FIG. 20): high dose, 100 nM; for inhibition of tube formation: concentration not given
Method: The compounds also were tested for their ability to inhibit tube formation, a process critical in angiogenesis. Endothelial cells spontaneously form a network of tubes when plated on extracts of extracellular matrix. This in vitro assay combines aspects of adhesion and migration and it is routinely used in angiogenesis research (Oliveira-Ferrer et al., 2008). The ability to inhibit tube formation is a comprehensive assessment of the anti-angiogenic potential. The protocol was described by Arnaoutova et al. (2009) and it consists of plating HUVEC on top of basement membrane extract and after incubation at 37° C. the cells naturally rearrange themselves in a network of tubes. Thus, 50 μL/well of Matrigel (BD Biosciences, San Jose, Calif.) was plated in a cold 96 well plate and incubated at 37° C. for 30 min for polymerization. 15,000 cells/well were added to the top of the gel and incubated in complete media in the presence or absence of peptide for 19 hours. Images were captured using the CCD Sensicam mounted on a Nikon microscope (Eclipse T-100). Assays were performed in at least two independent replicates and each replicate was performed using three experimental replicates and one image of a randomly chosen field was acquired per well.

MDA-MB-231 xenograft = assay: MDA-MB-231 orthotopic breast tumor xenograft; format: in vivo, SCID mice; conditions: for MDA-MB-231 xenograft inhibition: mice
Method: For primary tumor inhibition studies, 1−2×10^6 tumor cells were injected into 4-6 wk old female SCID mice. After the tumors reached a size of 100 mm^3 the animals were randomized into groups of 10 animals each. The animals were treated with vehicle, SP2012, SP2000, or SP2024. The peptides were administered subcutaneously daily. Dosing was continued for 3 or 4 weeks and tumor sizes were measured every 3 days using calipers. The tumor volume was estimated using the formula V=a^2b/2 where a and b are the smaller and larger diameters.
For the tumor xenograft assay, animals were housed and treated according to the approved animal protocol of the Institutional Care and Use Committee at Johns Hopkins Medical Institution (JHMI). Orthotopic breast tumors were initiated in SCID mice using MDA-MB-231 cells. 2×10^6 cells per 100 μL aliquot of single cell suspension were injected in the breast mannary fat pad. Tumors reached volumes of 75 mm^3 to 100 mm^3 in approximately 14-21 days. Mice were randomized and arranged in groups (8 mice per group) with similar tumor volumes (no statistical difference among averages) and treatment was commenced. Peptides were administered once per day intraperitoneally (i.p.) at doses of 10 mg/kg (subcutaneous delivery was also tested with certain peptides). Paclitaxel was administered at 5 mg/kg once a week, and to maintain the daily treatment regime PBS was administered on the non-treatment days. Tumors were measured every fourth day using calipers and the tumor volume was calculated using the formula V=ab^2/2, where a is the larger diameter and b is the smaller diameter.

| Compound | IC50 (HUVEC [1]) | Migration Inhibition (50 uM) (HUVEC [2]) | Adhesion Inhibition (100 uM) (HUVEC [3]) | Tube formation Inhibition (100 uM) (HUVEC [4]) | suppression of tumor growth (MDA-MB-231 xenograft; MDA-MB-231 xenograft in mice, 10 mg/kg daily) | microvascular density (MDA-MB-231 xenograft; after completion of the treatment at 21 days) | MDA-MB-231 xenograft inhibition (MDA-MB-231 xenograft) | Activity in Proliferation (HUVEC [1]; HUVEC) | Activity in Migration (HUVEC [2]) | inhibition of migration (HUVEC [2]) | Activity in Adhesion (HUVEC [3]) | Activity in Tube formation (HUVEC [4]) | inhibition of tube formation (FIG. 20) (HUVEC [4]) | inhibition of proliferation (HUVEC [1]; HUVEC) | inhibition of tube formation (HUVEC [4]) | Migration Inhibition (5 uM) (HUVEC [2]) | Proliferation Inhibition (IC50 in uM) (HUVEC [1]; HUVEC, summary tables 2-4, 6, 7) |
| --- | --- | --- | --- | --- | --- | --- | --- | --- | --- | --- | --- | --- | --- | --- | --- | --- | --- |
| CC[C@H](C)[C@H](NC(=O)[C@H](CC(N)=O)NC(=O)[C@H](CS)NC(=O)[C@H](Cc1ccccc1)NC(=O)[C@H](CCSC)NC(=O)[C@H](Cc1ccccc1)NC(=O)[C@@H]1CCCN1C(=O)[C@H](CCSC)NC(=O)[C@@H](NC(=O)[C@H](CO)NC(=O)[C@H](Cc1ccccc1)NC(=O)[C@H](CCCNC(=N)N)NC(=O)[C@H](CCCNC(=N)N)NC(=O)[C@@H](N)CC(C)C)[C@@H](C)O)C(=O)N[C@@H](CC(N)=O)C(=O)N[C@@H](CC(N)=O)C(=O)N[C@H](C(=O)N[C@@H](CS)C(=O)N[C@@H](CC(N)=O)C(=O)N[C@@H](Cc1ccccc1)C(N)=O)C(C)C [SP2000, reference compound] (H-LRRFSTMPFMFCNINNVCNF-NH2; N-terminus assumed) | 15.5 µM | 80% | 95% | Complete | tumor growth was inhibited | statistically different from one another | Active |  |  |  |  |  |  |  |  |  |  |
| CC[C@H](NC(=O)[C@H](Cc1ccccc1)NC(=O)[C@H](CCSC)NC(=O)[C@H](Cc1ccccc1)NC(=O)[C@@H]1CCCN1C(=O)[C@H](CCSC)NC(=O)[C@@H](NC(=O)[C@@H](N)CO)[C@@H](C)O)C(=O)N[C@@H](CC(N)=O)C(=O)N[C@H](C(=O)N[C@@H](CC(N)=O)C(=O)N[C@@H](CC(N)=O)C(=O)N[C@H](C(=O)N[C@@H](CC)C(=O)N[C@@H](CC(N)=O)C(=O)N[C@@H](Cc1ccccc1)C(=O)O)C(C)C)[C@@H](C)CC [SP2011, STMPFMFAbuNINNVAbuNF-OH] (H-STMPFMF[Abu]NINNV[Abu]NF-OH; N-terminus assumed) | 51.4 µM | Inactive | 0% | Partial |  |  | Active | No | No | inactive in the migration assay | Yes | No | no activity in tube formation |  |  |  |  |
| LRRFSTMPFMFSNINNVSNF-NH2 [SP2022] |  |  | 96.49% |  |  |  |  | Yes | Yes |  | Yes | Yes |  | not affected |  |  |  |
| LRRFSTMPFMFTNINN-NH2 [SP2032, LRRFSTMPFMFTNINN] |  | 32.45% | 63% | Complete |  |  |  | Yes | Yes |  | Yes | Yes |  | potent activity in inhibiting proliferation | Inhibition of tube formation |  |  |
| LRRFSTMPFMFTNINNVTNF-NH2 [SP2025] |  |  | 96.48% | Complete |  |  |  | Yes | Yes |  | Yes | Yes |  | not affected |  | 18.19% |  |
| LRRFSTMPFMFTNINV-NH2 [SP2029, LRRFSTMPFMFTNINV] |  | 54.13% | 93.75% | Complete |  |  |  | Yes | Yes |  | Yes | Yes |  | potent activity in inhibiting proliferation | Inhibition of tube formation |  |  |
| LRRFSTMPFMFVNINNVVNF-NH2 [SP2027] |  |  | 96.75% | Complete |  |  |  | Yes | Yes |  | Yes | Yes |  | not affected |  | 27.02% |  |
| NINNVAbuNF (NINNVXNF; Abu non-natural residue; Artificial sequence based on the human Collagen Type IV protein) [SP2009] |  | 55% | 0% | Partial |  |  |  | No | Yes | inhibitory activity; also recorded: active in migration | No | Yes | displayed activity in inhibiting tube formation |  |  |  | Inactive |
